In patent US8921414B2, “Spiroketals” (EcoBiotics Ltd, priority 2005, dated 2014):
Values after ≈ are worked out from the molar mass of the structure shown.

How the values were obtained:
Haemonchus contortus = assay: NemaTOX (Ne) anthelmintic larval development bioassay; settings: for Ne LD99: weight of chemical in last well with activity, real value may be lower
Experimental: NemaTOX (alternatively referred to herein as Ne) is an anthelmintic bioassay, applicable to all parasitic nematodes with free-living life cycle stages, and can be used as a screen to detect activity and define the species spectrum of compounds against parasitic nematodes and examine the impact of pre-existing resistance to other anthelmintic classes on potency. Haemonchus contortus was utilised for this assay.
The effect on larval development is determined in this assay by the method described by Gill et al. (1995) Int. J. Parasitol. 25: 463-470. Briefly, in this assay nematode eggs were applied to the surface of an agar matrix containing the test sample and allowed to develop through to the L3, infective stage (6 days). At this time the stage of larval development reached and any unusual features (deformity, paralysis, toxicity) were noted by microscopic examination.

leukemia K562 = assay: Additional in vitro activity: antitumor activity, K562; assay type: cell-based, human; settings: concentration with activity
melanoma MM96L = assay: Additional in vitro activity: antitumor activity, MM96L; assay type: cell-based, human; settings: concentration with activity
breast MCF-7 = assay: Additional in vitro activity: antitumor activity, MCF-7; assay type: cell-based, human; settings: concentration with activity
MCF-7 breast cancer = assay: Cell growth inhibition (Table 22), MCF7; assay type: cell-based; settings: Homo sapiens, read-out: IC50 (drug dose which inhibits cell growth by 50%) MCF7
Experimental: (§1) The isolated compounds were tested against a number of human and non-human cancer cell lines. The human tumor cell lines were: MCF-7, MDA-MB-231 and T47D, breast cancer; DU145 and PC3, prostate cancer; CI80-13S, ovarian cancer; MM96L, D04, SkMel5, MM418c5 melanoma; HT29, colon cancer; K562 and HL60, leukemia. Mouse cell lines were the B16 mouse melanoma and LK2 UV-induced squamous cell carcinoma (SCC). Neonatal foreskin fibroblasts (NFF) were used as normal control cells. Cells were cultured at 37° C. in 5% carbon dioxide/air, in RPMI 1640 medium containing 10% fetal calf serum.

PC3 prostate cancer = assay: Cell growth inhibition (Table 22), PC3; assay type: cell-based; settings: Homo sapiens, PC-3; read-out: IC50 (drug dose which inhibits cell growth by 50%) PC3
Experimental: as §1

CI80-13S ovarian cancer = assay: Cell growth inhibition (Table 22), C180-13S; assay type: cell-based; settings: Homo sapiens, read-out: IC50 (drug dose which inhibits cell growth by 50%) C180-13S
Experimental: as §1

B16 mouse melanoma = assay: Cell growth inhibition (Table 22), B16; assay type: cell-based; settings: read-out: IC50 (drug dose which inhibits cell growth by 50%) B16
Experimental: as §1

[1] = system: EBV-infected peripheral blood mononuclear cells (PBMCs); assay: EBV transformation of donor PBMCs (anti-inflammatory screening); assay type: cell-based, human; settings: 2 μg/mL, 28 days, visual and 3H-T cpm
Experimental: Three main assays were performed; transformation, regression and mixed lymphocyte reactions (MLRs). Reference is made to Moss et al., (D J, Rickinson A B, Pope J H: Long-term T-cell-mediated immunity to Epstein-Barr virus in man. III. Activation of cytotoxic T cells in virus-infected leukocyte cultures. Int J Cancer 1979, 23:618-625). Complete regression of virus-induced transformation in cultures of seropositive donor leukocytes
Both regression and MLR quantitative experimental results were obtained visually and by the addition of [methyl-^3H]thymidine (3H-T). 3H-T is a nucleoside analogue and is incorporated into the DNA of proliferating cells. If cells are proliferating, the counts/minute (cpm) is high; if cells are dead, the cpm is low.
EBV seronegative and seropositive donors' peripheral blood mononuclear cells (PBMCs) were infected with EBV. […]
The cells were then incubated for 28 days when results were determined visually and by the addition of 3H-T to obtain quantitative data.
The individual transformation summaries were determined by visual data and 3H-T cpm data from EBV seronegative_donors' peripheral blood mononuclear cells (PBMC). […] The 3H-T cpm cut-off values were determined for each individual assay by this control value, plus and minus a five (5)-fold difference. […]

[2] = system: human peripheral blood lymphocytes (PBMC) with gamma-irradiated LCL; assay: Inhibition of the mixed lymphocyte reaction (MLR); assay type: cell-based; settings: [3H]-thymidine on Day 4
Experimental: (§2) Gamma-irradiated lymphoblastoid cells (LCL, Esptein-Barr virus-transformed B-cells; 17,000) were added to human peripheral blood lymphocytes (PBMC; 50,000 per microtitre well), then the drug, incubated at 37 C as above and labeled with [3H]-thymidine on Day 4. Cells were lysed and washed onto glass fibre mats for scintillation counting. The same drug concentrations were tested for direct toxicity by assay on control LCL (10,000 cells/well).
The MLR measures the ability of normal human T-cells to undergo a proliferative response to allo antigens expressed by a non-proliferating B-cell line. […] This was not due to general toxicity because the growth of control LCLs was unaffected.

[3] = system: control LCL (lymphoblastoid cells); assay: Direct toxicity on control LCL; assay type: cell-based, human; settings: same drug concentrations as MLR (1 μg/mL)
Experimental: as §2

B16 melanoma = assay: Inhibition of B16 melanoma growth in C57BL/6 mice; assay type: in vivo
Experimental: After a preliminary experiment to determine the MTD in mice, C57BL/6 mice were implanted with B16 melanoma cells (0.5 million cells per site, 2 sites per mouse sc, 3 mice/group) and treatment commenced 24 hours later. For this initial study, EBI-23 was prepared by diluting an ethanol solution into saline, such that the final ethanol level was 2%. The cloudy solution thus obtained was injected intraperitoneally into mice every day for 7 days. Tumor size and body weight were measured over time.

a human tumor cell line = assay: Preliminary screen of growth-inhibiting activity of derivatised EBI-23, EBI-24, EBI-25; assay type: cell-based; settings: growth inhibition
Experimental: A series of derivatisation reactions were conducted on 1 mg amounts of EBI-23, EBI-24, and EBI-25. Mass spectra were run to confirm the nature of the derivatives but the product(s) weren't purified for this preliminary screen of growth-inhibiting activity in a human tumor cell line. The results were compared on the assumption that no losses occurred during derivatisation.

Compound | Ne Titre (Haemonchus contortus) | Ne LD99 (Haemonchus contortus; listed as EB77.LA4.92-100) | Ne LD99 (Haemonchus contortus; listed as EB116.LA3.31-27/32) | antitumor activity against leukemia K562 at (leukemia K562) | antitumor activity against melanoma MM96L at (melanoma MM96L) | antitumor activity against breast MCF-7 at (breast MCF-7) | IC50 (MCF-7 breast cancer) | IC50 (PC3 prostate cancer) | IC50 (CI80-13S ovarian cancer) | IC50 (B16 mouse melanoma) | inhibition of transformation [1] | concentration found to inhibit the MLR [2] | growth of control LCLs [3] | B16 growth (B16 melanoma; 80 μg (per mouse per day) intraperitoneally) | B16 growth (B16 melanoma; 250 μg/mouse/day intraperitoneally) | body weight (B16 melanoma; higher dose (250 μg/mouse/day)) | tolerability of regime (B16 melanoma; intraperitoneal daily dosing, C57BL/6 mice) | Ne LD99 (Haemonchus contortus; listed as EB116.LA3.31-36/40) | Ne LD99 (Haemonchus contortus; listed as EB116.LA3.60-47/49) | fold less potent than EBI-23 (a human tumor cell line)
CCCCCCCCCCCCCC(O)CC1CC(O)CC2(CC3OC(=O)C=CC3O2)O1 (centres unmarked) [EBI-23] | 1 | 63 µg/mL | 100 µg/mL | 3 µg/mL | 1 µg/mL | 1 µg/mL | 0.5 µg/mL (≈ 1.1 µM) | 1 µg/mL (≈ 2.21 µM) | 0.2 µg/mL (≈ 0.442 µM) | 0.5 µg/mL (≈ 1.1 µM) | strong inhibition | 1 µg/mL | unaffected | measurable response | significant reduction | some weight loss | tolerated this regime well | – | – | –
CC/C=C/CCCCCCCCCCCC(O)CC1CC(O)CC2(CC3OC(=O)C=CC3O2)O1 (centres unmarked) [EBI-24] | – | – | – | 10 µg/mL | 3 µg/mL | 10 µg/mL | 0.2 µg/mL (≈ 0.418 µM) | – | 0.75 µg/mL (≈ 1.57 µM) | – | strong inhibition | – | – | – | – | – | – | 100 µg/mL | 50 µg/mL | 10 fold
